Legend:
rat TAAR1 = rat TAAR1 (Rattus norvegicus (Rat), UniProt Q923Y9); test: Radioligand binding assay on rat TAAR1; conditions: rat TAAR1, membranes of stably transfected HEK-293 cells; second value of the pair; read-out: Ki (μM) mouse/rat: rat
Experimental: (§1) For the construction of expression plasmids the coding sequences of human, rat and mouse TAAR 1 were amplified from genomic DNA essentially as described by Lindemann et al.. The Expand High Fidelity PCR System (Roche Diagnostics) was used with 1.5 mM Mg^2+ and purified PCR products were cloned into pCR2.1-TOPO cloning vector (Invitrogen) following the instructions of the manufacturer. PCR products were subcloned into the pIRESneo2 vector (BD Clontech, Palo Alto, Calif.), and expression vectors were sequence verified before introduction in cell lines.
(§2) For the generation of stably transfected cell lines HEK293 cells were transfected with the pIRESneo2 expression plasmids containing the TAAR coding sequences (described above) with Lipofectamine 2000 (Invitrogen) according to the instructions of the manufacturer, and 24 hrs post transfection the culture medium was supplemented with 1 mg/ml G418 (Sigma, Buchs, Switzerland). After a culture period of about 10 d clones were isolated, expanded and tested for responsiveness to trace amines (all compounds purchased from Sigma) with the cAMP Biotrak Enzyme immunoassay (EIA) System (Amersham) following the non-acetylation EIA procedure provided by the manufacturer.
Radioligand Binding Assay on Rat TAAR1
(§3) Membrane Preparation and Radioligand Binding.
(§4) Cells were released from culture flasks using trypsin/EDTA, harvested, washed twice with ice-cold PBS (without Ca^2+ and Mg^2+), pelleted at 1′000 rpm for 5 min at 4° C., frozen and stored at −80° C. Frozen pellets were suspended in 20 ml HEPES-NaOH (20 mM, pH 7.4) containing 10 mM EDTA and homogenized with a Polytron (PT 6000, Kinematica) at 14′000 rpm for 20 s. The homogenate was centrifuged at 48′000×g for 30 min at 4° C. Subsequently, the supernatant was removed and discarded, and the pellet resuspended in 20 ml HEPES-NaOH (20 mM, pH 7.4) containing 0.1 mM EDTA using the Polytron (20 s at 14′000 rpm). This procedure was repeated and the final pellet resuspended in HEPES-NaOH containing 0.1 mM EDTA and homogenized using the Polytron. Typically, aliquots of 2 ml membrane portions were stored at −80° C. With each new membrane batch the dissociation constant (Kd) was determined via a saturation curve. […] Nonspecific binding was defined as the amount of ^3[H]—(S)-4-[(ethyl-phenyl-amino)-methyl]-4,5-dihydro-oxazol-2-ylamine bound in the presence of 10 μM unlabeled ligand. All compounds were tested at a broad range of concentrations (10 pM to 10 μM) in duplicates. […] The 96 deep well plates were incubated for 1 hr at 4° C. Incubations were terminated by rapid filtration through Unifilter-96 plates (Packard Instrument Company) and glass filters GF/C (Perkin Elmer) presoaked for 1 hr in polyethylenimine (0.3%) and washed 3 times with 1 ml of cold binding buffer. After addition of 45 μl of Microscint 40 (PerkinElmer) the Unifilter-96 plate was sealed and after 1 hr the radioactivity counted using a TopCount Microplate Scintillation Counter (Packard Instrument Company).

mouse TAAR1 = mouse TAAR1 (Mus musculus (Mouse), UniProt Q923Y8); test: Radioligand binding assay on mouse TAAR1; conditions: mouse TAAR1, membranes of stably transfected HEK-293 cells; first value of the pair; read-out: Ki (μM) mouse/rat: mouse
Experimental: as §1, §2
Radioligand Binding Assay on Mouse TAAR1
as §3
as §4, with “1,000” for “1′000”, “48,000×g” for “48′000×g”

rat TAAR1, sequence (Q923Y9 whole entry): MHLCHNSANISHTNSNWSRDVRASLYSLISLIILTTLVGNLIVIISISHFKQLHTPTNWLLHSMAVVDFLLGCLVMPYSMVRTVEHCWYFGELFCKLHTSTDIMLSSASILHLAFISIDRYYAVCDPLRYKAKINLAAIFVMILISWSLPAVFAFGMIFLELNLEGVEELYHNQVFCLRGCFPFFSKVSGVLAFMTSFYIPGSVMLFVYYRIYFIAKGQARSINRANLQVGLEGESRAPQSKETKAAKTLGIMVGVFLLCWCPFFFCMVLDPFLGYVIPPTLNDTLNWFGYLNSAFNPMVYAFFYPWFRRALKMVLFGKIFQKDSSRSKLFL
mouse TAAR1, sequence (Q923Y8 whole entry): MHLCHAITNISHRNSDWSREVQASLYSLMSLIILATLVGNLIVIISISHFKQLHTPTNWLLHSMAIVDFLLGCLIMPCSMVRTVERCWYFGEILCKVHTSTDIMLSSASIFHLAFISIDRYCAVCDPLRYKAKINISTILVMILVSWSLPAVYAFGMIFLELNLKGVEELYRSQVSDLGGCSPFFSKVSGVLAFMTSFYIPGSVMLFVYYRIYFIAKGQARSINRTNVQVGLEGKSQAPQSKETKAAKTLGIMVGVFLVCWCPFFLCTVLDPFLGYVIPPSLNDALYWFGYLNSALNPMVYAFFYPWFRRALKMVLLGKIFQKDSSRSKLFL

| Compound | Ki (rat TAAR1) [µM] | Ki (mouse TAAR1) [µM] |
| --- | --- | --- |
| CCc1ncc(C(=O)Nc2ccc([C@@H]3CNCCO3)nc2)cn1 [Example 37, 2-Ethyl-N-[6-[(2S)-morpholin-2-yl]-3-pyridyl]pyrimidine-5-carboxamide] | 1.47 | 0.139 |
| CC(C)c1cc(C(=O)Nc2ccc([C@@H]3CNCCO3)nc2)[nH]n1 [Example 38, 3-Isopropyl-N-[6-[(2S)-morpholin-2-yl]-3-pyridyl]-1H-pyrazole-5-carboxamide] | 0.0727 | 0.0263 |
| O=C(Nc1ccc([C@@H]2CNCCO2)nc1)c1[nH]nc(C2CC2)c1Cl [Example 40, 4-Chloro-3-cyclopropyl-N-[6-[(2S)-morpholin-2-yl]-3-pyridyl]-1H-pyrazole-5-carboxamide] | 0.0428 | 0.0089 |
| O=C(Nc1ccc([C@@H]2CNCCO2)nc1)Nc1cccc(C(F)(F)F)c1 [Example 42, 1-[6-[(2S)-Morpholin-2-yl]-3-pyridyl]-3-[3-(trifluoromethyl)phenyl]urea] | 0.003 | 0.0038 |
| CCCc1c(Cl)c(C(=O)Nc2ccc([C@@H]3CNCCO3)nc2)nn1C [Example 46, 4-Chloro-1-methyl-N-[6-[(2S)-morpholin-2-yl]-3-pyridyl]-5-propyl-pyrazole-3-carboxamide] | 0.651 | 0.0188 |
| Brc1ccc(Nc2ccc([C@H]3CNCCO3)nc2)nc1 [Example 47, N-(5-Bromo-2-pyridyl)-6-[(2R)-morpholin-2-yl]pyridin-3-amine] | 0.165 | 0.0039 |
| O=C(Nc1ccc([C@H]2CNCCO2)nc1)c1ccc(Cl)cc1 [Example 51, 4-Chloro-N-[6-[(2R)-morpholin-2-yl]-3-pyridyl]benzamide] | 0.212 | 0.0039 |
| O=C(Nc1ccc([C@H]2CNCCO2)nc1)c1ccc(C(F)(F)F)cc1 [Example 53, N-[6-[(2R)-Morpholin-2-yl]-3-pyridyl]-4-(trifluoromethyl)benzamide] | 0.0718 | 0.0061 |
| O=C(Nc1ccc([C@H]2CNCCO2)nc1)c1cccc(C(F)(F)F)c1 [Example 55, N-[6-[(2R)-Morpholin-2-yl]-3-pyridyl]-3-(trifluoromethyl)benzamide] | 0.0221 | 0.0064 |
| CCc1ncc(C(=O)Nc2ccc([C@H]3CNCCO3)nc2)cn1 [Example 57, 2-Ethyl-N-[6-[(2R)-morpholin-2-yl]-3-pyridyl]pyrimidine-5-carboxamide] | 2.4 | 0.673 |
| CCCc1n[nH]c(C(=O)Nc2ccc([C@H]3CNCCO3)nc2)c1Cl [Example 59, 4-Chloro-N-[6-[(2R)-morpholin-2-yl]-3-pyridyl]-3-propyl-1H-pyrazole-5-carboxamide] | 0.021 | 0.0063 |
| O=C(Nc1ccc([C@H]2CNCCO2)nc1)Nc1cccc(C(F)(F)F)c1 [Example 62, 1-[6-[(2R)-Morpholin-2-yl]-3-pyridyl]-3-[3-(trifluoromethyl)phenyl]urea] | 0.0077 | 0.0035 |
| O=C(Nc1ccc([C@H]2CNCCO2)nc1)c1[nH]nc(C(F)(F)F)c1Cl [Example 63, 4-Chloro-N-[6-[(2R)-morpholin-2-yl]-3-pyridyl]-3-(trifluoromethyl)-1H-pyrazole-5-carboxamide] | 0.0613 | 0.0495 |
| Cc1cn[nH]c1C(=O)Nc1ccc([C@H]2CNCCO2)nc1 [Example 65, 4-Methyl-N-[6-[(2R)-morpholin-2-yl]-3-pyridyl]-1H-pyrazole-5-carboxamide] | 4.47 | 0.344 |
| CCc1n[nH]c(C(=O)Nc2ccc([C@H]3CNCCO3)nc2)c1C [Example 66, (R)-3-Ethyl-4-methyl-N-(6-(morpholin-2-yl)pyridin-3-yl)-1H-pyrazole-5-carboxamide] | 0.0534 | 0.0113 |
| CCc1n[nH]c(C(=O)Nc2ccc([C@@H]3CNCCO3)nc2)c1C [Example 67, (S)-3-Ethyl-4-methyl-N-(6-(morpholin-2-yl)pyridin-3-yl)-1H-pyrazole-5-carboxamide] | 0.27 | 0.0147 |

The remaining compounds from weak to strong by Ki (rat TAAR1), led by results:

| Ki (rat TAAR1) [µM] | Ki (mouse TAAR1) [µM] | Compound |
| --- | --- | --- |
| 1.57 | 0.018 | Cc1n[nH]c(C(=O)Nc2ccc([C@H]3CNCCO3)nc2)c1Cl [Example 64, 4-Chloro-3-methyl-N-[6-[(2R)-morpholin-2-yl]-3-pyridyl]-1H-pyrazole-5-carboxamide] |
| 1.37 | 0.0199 | CCCc1c(Cl)c(C(=O)Nc2ccc([C@H]3CNCCO3)nc2)nn1C [Example 48, 4-Chloro-1-methyl-N-[6-[(2R)-morpholin-2-yl]-3-pyridyl]-5-propyl-pyrazole-3-carboxamide] |
| 1.13 | 0.162 | Cc1cn[nH]c1C(=O)Nc1ccc([C@@H]2CNCCO2)nc1 [Example 45, 4-Methyl-N-[6-[(2S)-morpholin-2-yl]-3-pyridyl]-1H-pyrazole-5-carboxamide] |
| 0.685 | 0.0373 | CC(C)c1cc(C(=O)Nc2ccc([C@H]3CNCCO3)nc2)[nH]n1 [Example 58, 3-Isopropyl-N-[6-[(2R)-morpholin-2-yl]-3-pyridyl]-1H-pyrazole-5-carboxamide] |
| 0.443 | 0.0239 | Cc1n[nH]c(C(=O)Nc2ccc([C@@H]3CNCCO3)nc2)c1Cl [Example 44, 4-Chloro-3-methyl-N-[6-[(2S)-morpholin-2-yl]-3-pyridyl]-1H-pyrazole-5-carboxamide] |
| 0.122 | 0.005 | FC(F)(F)c1cccc(Nc2ccc([C@H]3CNCCO3)nc2)n1 [Example 50, N-[6-[(2R)-Morpholin-2-yl]-3-pyridyl]-6-(trifluoromethyl)pyridin-2-amine] |
| 0.0838 | 0.0474 | O=C(Nc1ccc([C@@H]2CNCCO2)nc1)c1[nH]nc(C(F)(F)F)c1Cl [Example 43, 4-Chloro-N-[6-[(2S)-morpholin-2-yl]-3-pyridyl]-3-(trifluoromethyl)-1H-pyrazole-5-carboxamide] |
| 0.066 | 0.0052 | FC(F)(F)c1ccc(Nc2ccc([C@H]3CNCCO3)nc2)nc1 [Example 49, N-[6-[(2R)-Morpholin-2-yl]-3-pyridyl]-5-(trifluoromethyl)pyridin-2-amine] |
| 0.0448 | 0.0096 | O=C(Nc1ccc([C@H]2CNCCO2)nc1)c1[nH]nc(C2CC2)c1Cl [Example 60, 4-Chloro-3-cyclopropyl-N-[6-[(2R)-morpholin-2-yl]-3-pyridyl]-1H-pyrazole-5-carboxamide] |
| 0.0334 | 0.0075 | O=C(Nc1ccc([C@H]2CNCCO2)nc1)c1ccc(OCC(F)(F)F)nc1 [Example 56, N-[6-[(2R)-Morpholin-2-yl]-3-pyridyl]-6-(2,2,2-trifluoroethoxy)pyridine-3-carboxamide] |
| 0.0146 | 0.007 | CCCc1n[nH]c(C(=O)Nc2ccc([C@@H]3CNCCO3)nc2)c1Cl [Example 39, 4-Chloro-N-[6-[(2S)-morpholin-2-yl]-3-pyridyl]-3-propyl-1H-pyrazole-5-carboxamide] |

— patent US9840501B2, “Morpholin-pyridine derivatives” (Hoffmann-La Roche Inc., priority 2014, dated 2017)
